The values that follow come from PubChem BioAssay AID1508612.

This series is described as follows: passive permeability, PAMPA, ADME assay (AID 1508612). The conditions noted are these: pH 7.4, 30.0 min, 50.0 µM. (In general: The PAMPA barrier holds no transporters, so it reflects passive diffusion.)
Take `Cc1ccc2[nH]c(-c3ccccc3)cc(=O)c2c1`: the Papp turned out to be 74.9 ×10⁻⁶ cm/s.
The value for `CC(=O)N1CCc2c(sc3c2c(=O)n(-c2ccccc2)c(=O)n3Cc2cccc(C(F)(F)F)c2)C1` was greater than 1000 ×10⁻⁶ cm/s.
As to `COc1ccc(CNC(=O)CCCn2nc(C)c3c(C)n(-c4ccc(C)cc4)nc3c2=O)cc1OC`, the Papp was 235 ×10⁻⁶ cm/s.
The value for `Cc1ccc(S(=O)(=O)Nc2ccccc2C(=O)Nc2ncc(-c3ccccc3)o2)cc1` was 303 ×10⁻⁶ cm/s; that for `CCOc1ccc(CCNC(=O)c2cc3ncccc3n2Cc2cccc(C)c2)cc1OCC` was greater than 1000 ×10⁻⁶ cm/s; that for `O=C1CCCC2=C1C(c1[nH]ncc1Cl)N=C(Nc1nc3c(Br)cccc3o1)N2` (stereo not drawn) was 531 ×10⁻⁶ cm/s.
The value for `c1ccc2c(N3CCOCC3)nc(-c3ccncc3)nc2c1` was greater than 1000 ×10⁻⁶ cm/s; that for `Cc1ccc(S(=O)(=O)Nc2ccccc2C(=O)Nc2nc(-c3ccc(Cl)cc3)cs2)cc1` was 16.6 ×10⁻⁶ cm/s; that for `COc1ccc(CCn2c(N)cc(=O)[nH]c2=S)cc1OC` was 7.34 ×10⁻⁶ cm/s.
For `CN(C)CCOc1ccc(C(=C(CCCl)c2ccccc2)c2ccccc2)cc1` the value was less than 1 ×10⁻⁶ cm/s; for `O=C(NCCO)c1cccc(-c2cc(Nc3ccc(OC(F)(F)F)cc3)ncn2)c1`, 472 ×10⁻⁶ cm/s; for `Cc1cccc(N2CCN(C(=O)c3ccc4c(c3)C(O)CCCCCN4C)CC2)c1` (stereo not drawn), less than 1 ×10⁻⁶ cm/s.
Compound `Cc1ccc(-n2nc3c(=O)n(CCCC(=O)NC(C)c4ccccc4)nc(C)c3c2C)cc1` (stereo not drawn) had a Papp of 695 ×10⁻⁶ cm/s.
`Fc1ccccc1Nc1nc(-c2ccncc2)nc2ccccc12` gave a Papp of 839 ×10⁻⁶ cm/s.
The value for `CC(C)c1ccc2oc3nc(N)c(C(=O)O)cc3c(=O)c2c1` was 9.71 ×10⁻⁶ cm/s; that for `O=C(Nc1nc(-c2ccccc2)cs1)c1ccncc1NS(=O)(=O)c1ccccc1` was 501 ×10⁻⁶ cm/s; that for `CCC[C@@H]1CN(C(=O)c2ccc(-c3ccc(C)o3)cc2)C[C@H]1NC(C)=O` was greater than 1000 ×10⁻⁶ cm/s.
The value for `O=C(Cc1ccc(Cl)c(Cl)c1)Nc1ccc(S(=O)(=O)Nc2nncs2)cc1` was 1.5 ×10⁻⁶ cm/s; that for `Cc1cccc(CS(=O)(=O)c2ncc(Cl)c(C(=O)Nc3nc4ccc(F)cc4s3)n2)c1` was 261 ×10⁻⁶ cm/s; that for `CCOc1ccc(Nc2nc(C)c(NC(=O)c3ccc(C)cc3)c(Nc3ccc(OCC)cc3)n2)cc1` was 211 ×10⁻⁶ cm/s.
The value for `CCCc1cc(=O)oc2c3c(c4c(c12)OC(C)(C)C=C4)OC(C)C(C)C3O` (stereo not drawn) was greater than 1000 ×10⁻⁶ cm/s.
`Cc1ccc(S(=O)(=O)Nc2cnccc2C(=O)Nc2ccc(-c3nc4ccccc4[nH]3)cc2)cc1`: the Papp came to 2.2 ×10⁻⁶ cm/s.
The value for `Cc1nc([N+](=O)[O-])cn1-c1ccc([N+](=O)[O-])cc1` was 27.9 ×10⁻⁶ cm/s; that for `O=C(NCCCc1ccccc1)c1cccc(-c2cc(O)c3ncccc3c2)c1` was less than 1 ×10⁻⁶ cm/s.
The compound `Cc1ccccc1-c1nc(NCc2cccs2)c2ccccc2n1` showed a Papp of 406 ×10⁻⁶ cm/s.
The value for `Cc1nc(NCc2ccco2)nc2c1C(=O)CC(C)C2` (stereo not drawn) was greater than 1000 ×10⁻⁶ cm/s.
For `FC(F)(F)c1ccccc1-c1nc(NCc2cccs2)c2ccccc2n1` the value was greater than 1000 ×10⁻⁶ cm/s; for `CCCCCCN(CCCCCC)C(=O)Cc1c(-c2ccc(F)cc2)[nH]c2ccccc12`, 11.7 ×10⁻⁶ cm/s; for `CC(C)(O)Cn1c(NC(=O)c2ccc(-c3cn[nH]c3)s2)nc2cc(CN3CCOCC3)ccc21`, 368 ×10⁻⁶ cm/s.
For `O=C(Nc1ccc(C(=O)N2CCCC2)cc1)c1ccccc1F` the value was 139 ×10⁻⁶ cm/s.
In turn, `CNc1ncc(-c2cccc3ccccc23)o1` registered a Papp greater than 1000 ×10⁻⁶ cm/s.
For `Cc1cnc(-c2ccccc2C2COC2)nc1NCc1ccc(-c2cccnc2)cc1` the value was 2.87 ×10⁻⁶ cm/s; for `COc1cccc(CNc2ccc(S(=O)(=O)Nc3ccc(N4CCNCC4)cc3)cc2)c1O`, greater than 1000 ×10⁻⁶ cm/s.
For `CCOc1ccc(CCNC(=O)c2cc3sccc3n2Cc2ccc(-n3cncn3)cc2)cc1OCC` the value was greater than 1000 ×10⁻⁶ cm/s.
For `Cc1ccc(C(=O)Nc2nc3nc(C)cc(=O)n3[nH]2)cc1` the value was less than 1 ×10⁻⁶ cm/s; for `O=C(Nc1nc(-c2ccccc2)cs1)c1ccncc1NS(=O)(=O)c1ccc(F)c(F)c1`, greater than 1000 ×10⁻⁶ cm/s.
The compound `COc1ccc(-n2nc(C3CCN(C(=O)C4CC4)CC3)[nH]c2=O)cc1` yielded a Papp of 148 ×10⁻⁶ cm/s.
The value for `FC(F)(F)c1cccc(Sc2nc(-c3ccccc3)nnc2C(F)(F)F)c1` was 17 ×10⁻⁶ cm/s.
For `CCOc1ccccc1N1CC(c2nc3ccccc3n2CCOc2ccc(C(C)(C)C)cc2)CC1=O` (stereo not drawn) the value was 793 ×10⁻⁶ cm/s; for `CCOc1ccc(N2C(=O)c3n[nH]c(-c4cccs4)c3C2c2cccc(F)c2)cc1` (stereo not drawn), 82.4 ×10⁻⁶ cm/s.
The value for `CC[C@@]1(O)C(=O)OCc2c1cc1n(c2=O)Cc2cc3ccccc3nc2-1` was 68.3 ×10⁻⁶ cm/s.
Compound `Cc1ccccc1C(=O)Nc1ccc2c(c1)CCCN2C(=O)c1cccs1` came in with a Papp of 687 ×10⁻⁶ cm/s.
For `Cc1cnc(-c2ccccc2C(C)C)nc1NCC1CN(c2cccnc2)C1` the value was greater than 1000 ×10⁻⁶ cm/s.
For `CCc1c(C)nc2c(-c3cnn(-c4cc(CO)ccn4)c3)c[nH]n2c1=O` the value was 1.62 ×10⁻⁶ cm/s; for `CC(=O)Nc1ccc(OCc2cn(CC(=O)c3ccc(O)cc3)nn2)cc1`, less than 1 ×10⁻⁶ cm/s.
For `COc1ccc(C2c3c(oc4ccc(Cl)cc4c3=O)C(=O)N2CCCN(C)C)cc1OC` (stereo not drawn) the value was 235 ×10⁻⁶ cm/s; for `O=C(NC1CCCc2c1[nH]c1c(Cl)cccc21)c1ccc2c(c1)OCO2` (stereo not drawn), 51 ×10⁻⁶ cm/s.
For `O=C(CCS(=O)(=O)c1nc(-c2cccs2)cc(C(F)(F)F)n1)Nc1ccc(OC(F)(F)F)cc1`, the Papp was 5.76 ×10⁻⁶ cm/s.
The value for `COc1ccc(C2CC(=O)Nc3nc(N)sc32)cc1OC` (stereo not drawn) was 36.1 ×10⁻⁶ cm/s; that for `CCc1cc(Cl)c(OC)c(C(=O)NC[C@@H]2CCCN2CC)c1O` was greater than 1000 ×10⁻⁶ cm/s; that for `c1coc(-c2nc3ccncc3[nH]2)c1` was 27.9 ×10⁻⁶ cm/s.
The value for `Cn1c(=O)c2[nH]c(=O)[nH]c2n(C)c1=O` was 1.71 ×10⁻⁶ cm/s; that for `COc1ccc(-n2nc(C3CCN(C(=O)Cc4ccc(F)cc4)CC3)[nH]c2=O)cc1` was 540 ×10⁻⁶ cm/s; that for `Oc1ccc(-c2nc(C3CC3)nc3c2CCN(Cc2ccc(F)cc2)CC3)cc1` was greater than 1000 ×10⁻⁶ cm/s.
For `Cc1ccc(OCCn2c(CCNC(=O)N3CCCCC3)nc3ccccc32)cc1` the value was greater than 1000 ×10⁻⁶ cm/s.
Compound `NC(=O)C1CCN(c2ncc(-c3ccc4c(c3)OCO4)s2)CC1` yielded a Papp of 692 ×10⁻⁶ cm/s.
`NC(=O)Nc1cc(-c2ccc(CN3CCOCC3)cc2)sc1C(N)=O` came in with a Papp of 40.3 ×10⁻⁶ cm/s.
The compound `CCOC(=O)c1ccc(-n2c(C)cc(-c3nnc4n3CCCCC4)c2C)cc1` displayed a Papp of 353 ×10⁻⁶ cm/s.
The value for `Cc1ccccc1C(=O)N1CCC(C(=O)N2CCC(N3Cc4ccccc4C3=O)CC2)CC1` was 50.8 ×10⁻⁶ cm/s.
`NC(=O)C1CCN(c2nc(-c3ccccc3Cl)cs2)CC1` returned a Papp of 517 ×10⁻⁶ cm/s.
For `CCCNC(=O)c1ccc2c(c1)N=C(C)c1c(C)ccc(C)c1S2` the value was greater than 1000 ×10⁻⁶ cm/s; for `Cc1ccc(S(=O)(=O)Nc2cc(Br)ccc2C(=O)Nc2nc(-c3ccccc3)cs2)cc1`, 7.71 ×10⁻⁶ cm/s; for `CC(C)NC(=O)c1nc(-c2ccc(Cl)nc2)c2ccccn12`, greater than 1000 ×10⁻⁶ cm/s.
For `CCN1C(=O)c2ccccc2S(=O)c2ccc(C(=O)NCc3ccc(OC)cc3)cc21` (stereo not drawn) the value was 883 ×10⁻⁶ cm/s.
In turn, `CCc1cccc(NC(=O)c2c(C)oc3nc(C)nc(N4CCCC4)c23)c1` returned an apparent permeability (Papp) greater than 1000 ×10⁻⁶ cm/s.
The value for `COc1cc(-c2cn(C)c(=O)c3cnccc23)c(OC)cc1CN(C)C` was 28.9 ×10⁻⁶ cm/s; that for `COc1cccc(CNc2ccc(S(=O)(=O)Nc3ncccn3)cc2)c1O` was 31.5 ×10⁻⁶ cm/s.
The compound `C[C@@]12O[C@@H](C[C@]1(O)CO)n1c3ccccc3c3c4c(c5c6ccccc6n2c5c31)CNC4=O` showed a Papp of 7.06 ×10⁻⁶ cm/s.
The value for `CCOc1cc(CCNC(=O)c2cc3sccc3n2Cc2ccccc2)cc(F)c1OCC` was less than 1 ×10⁻⁶ cm/s.
For `NC(=O)C1CCN(c2nccc(-c3ccc4c(c3)OCCO4)n2)CC1` the value was 289 ×10⁻⁶ cm/s; for `Cc1ccccc1-c1nc(NCc2ccc(-c3cccnc3)cc2)c2ccccc2n1`, 547 ×10⁻⁶ cm/s.
For `CSc1nnc2c3ccccc3n(CCc3ccccc3)c2n1` the value was greater than 1000 ×10⁻⁶ cm/s; for `Cn1nnnc1Sc1ncnc2sccc12`, 67.6 ×10⁻⁶ cm/s; for `Cc1ccc(S(=O)(=O)Nc2cnccc2C(=O)Nc2nc(-c3ccccc3F)cs2)cc1`, 51.2 ×10⁻⁶ cm/s.
Turning to `CC1(C)CCC(CN2CCN(c3ccc(C(=O)NS(=O)(=O)c4ccc(NCC5CCOCC5)c([N+](=O)[O-])c4)c(Oc4cnc5[nH]ccc5c4)c3)CC2)=C(c2ccc(Cl)cc2)C1`, the apparent permeability (Papp) amounted to 1.5 ×10⁻⁶ cm/s.
Turning to `Cc1noc(C)c1-c1csc(N2CCC(C(N)=O)CC2)n1`, the Papp amounted to 58.9 ×10⁻⁶ cm/s.
As for `COc1ccccc1NS(=O)(=O)c1cccc(NC(=O)c2[nH]c(C)c(C(C)=O)c2C)c1`, the Papp came to 197 ×10⁻⁶ cm/s. Against the preceding compound, the Papp is about 3.3-fold higher.
For `COc1ccccc1-c1nnc2sc(-c3ccc(N(C)C)cc3)nn12`, the Papp turned out to be 278 ×10⁻⁶ cm/s.
For `Nc1ncnc2c1ncn2[C@H]1O[C@@H](CO)[C@@H](O)[C@H]1N`, the Papp was found to be 2.99 ×10⁻⁶ cm/s.
For `O=S(=O)(Nc1nc2n(n1)C(c1ccccc1)C=C(c1ccc(Cl)cc1)N2)c1ccccc1` (stereo not drawn) the value was 9.09 ×10⁻⁶ cm/s.
The value for `CC(=O)Nc1ccc(NC(=O)C(NS(=O)(=O)c2ccc(Br)s2)c2ccccc2)cc1` (stereo not drawn) was 224 ×10⁻⁶ cm/s; that for `CS(=O)(=O)c1cccc(-c2csc(N3CCC(C(N)=O)CC3)n2)c1` was 49.1 ×10⁻⁶ cm/s.
The value for `COC(=O)c1c(NC(=O)Cc2coc3cc(C)ccc23)sc2c1CCC2` was 26 ×10⁻⁶ cm/s; that for `CCCCCCCCc1ccc(CCC(N)(CO)CO)cc1` was 5.3 ×10⁻⁶ cm/s.
Compound `COc1ccc2c(c1)CCc1c-2n[nH]c1C(=O)N1CCc2c(nc3cc(-c4ccccc4)[nH]n3c2=O)C1` yielded a Papp of 15.8 ×10⁻⁶ cm/s.
The value for `O=C(Cc1nc2ccc(Cl)cc2[nH]1)Nc1ccc(S(=O)(=O)Nc2nccs2)cc1` was less than 1 ×10⁻⁶ cm/s; that for `COc1ccnc(NC(=S)N2CCN(c3cc(C(F)(F)F)cc(C(F)(F)F)c3)CC2)c1` was 373 ×10⁻⁶ cm/s.
The value for `O=S(=O)(c1ccccc1)N1CCN(c2nc(-c3ccc(Br)cc3)cs2)CC1` was 205 ×10⁻⁶ cm/s; that for `O=C1CCCC2=C1C(c1[nH]ncc1Cl)N=C(Nc1nc3c(Cl)cccc3o1)N2` (stereo not drawn) was 162 ×10⁻⁶ cm/s.
As for `Cn1nnnc1SCCCNCc1cccc(OCc2ccccc2Cl)c1`, the Papp is greater than 1000 ×10⁻⁶ cm/s.
Turning to `Cc1cc(Br)ccc1NC(=O)C(NS(=O)(=O)c1cccs1)c1ccccc1` (stereo not drawn), the Papp was less than 1 ×10⁻⁶ cm/s.
The value for `COC[C@@H]1CN(C(=O)c2n[nH]c3ccccc23)C[C@H]1c1nc(C)no1` was 66.8 ×10⁻⁶ cm/s; that for `O=C(CSc1nc(-c2ccc(F)cc2)[nH]c1-c1ccc(F)cc1)Nc1ccc2c(c1)OCCO2` was 11 ×10⁻⁶ cm/s.

One may read the Papp as a coefficient for how fast a substance crosses the barrier. A lower Papp goes with poor permeation.
